Where two headings read alike, the source gives them in different places.
Columns and labels:
Assay type in all cases: biochemical
[1] = target: PAK2 (PAK65) (Homo sapiens, UniProt Q13177); assay: In vitro PAK inhibition assay (Z'-LYTE, SelectScreen), PAK2
Outline: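 Z'-LYTE FRET readout using Ser/Thr 20 peptide (2 μM) with 0.29–6 ng PAK2 in 50 mM HEPES pH 7.5, 0.01% BRIJ-35, 10 mM MgCl2, 1 mM EGTA, 1% DMSO. Reaction and development each ran 60 min at room temperature.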

[2] = target: PAK3 (Homo sapiens, UniProt O75914); assay: In vitro PAK inhibition assay (Z'-LYTE, SelectScreen), PAK3
Outline: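 Z'-LYTE FRET format: PAK3 with Ser/Thr 20 peptide in 50 mM HEPES pH 7.5, 0.01% BRIJ-35, 10 mM MgCl2, 1 mM EGTA, 1% DMSO final. Kinase reaction 60 min at room temperature, then 60 min development and fluorescence read.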

[3] = target: PAK4 (Homo sapiens, UniProt O96013); assay: In vitro PAK inhibition assay (Z'-LYTE, SelectScreen), PAK4
Outline: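 Z'-LYTE FRET assay with 0.1-0.75 ng PAK-4 and 2 μM Ser/Thr 20 peptide in 50 mM HEPES pH 7.5, 10 mM MgCl2, 1 mM EGTA, 0.01% BRIJ-35, 1% DMSO; ATP near apparent Km. 1 h kinase reaction at room temperature, then 1 h development; IC50 from 10-point 3-fold titrations fitted to a sigmoidal dose-response.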

[4] = target: PAK1 (Homo sapiens, UniProt Q13153); assay: In vitro PAK inhibition assay (Z'-LYTE, SelectScreen), PAK1
Outline: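 FRET-based Z'-LYTE readout: PAK1 phosphorylates Ser/Thr 19 peptide in 50 mM HEPES pH 7.5, 0.01% BRIJ-35, 10 mM MgCl2, 1 mM EGTA, 1% DMSO, 60 min at room temperature, followed by 60 min development.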

PAK4, sequence (O96013 whole entry): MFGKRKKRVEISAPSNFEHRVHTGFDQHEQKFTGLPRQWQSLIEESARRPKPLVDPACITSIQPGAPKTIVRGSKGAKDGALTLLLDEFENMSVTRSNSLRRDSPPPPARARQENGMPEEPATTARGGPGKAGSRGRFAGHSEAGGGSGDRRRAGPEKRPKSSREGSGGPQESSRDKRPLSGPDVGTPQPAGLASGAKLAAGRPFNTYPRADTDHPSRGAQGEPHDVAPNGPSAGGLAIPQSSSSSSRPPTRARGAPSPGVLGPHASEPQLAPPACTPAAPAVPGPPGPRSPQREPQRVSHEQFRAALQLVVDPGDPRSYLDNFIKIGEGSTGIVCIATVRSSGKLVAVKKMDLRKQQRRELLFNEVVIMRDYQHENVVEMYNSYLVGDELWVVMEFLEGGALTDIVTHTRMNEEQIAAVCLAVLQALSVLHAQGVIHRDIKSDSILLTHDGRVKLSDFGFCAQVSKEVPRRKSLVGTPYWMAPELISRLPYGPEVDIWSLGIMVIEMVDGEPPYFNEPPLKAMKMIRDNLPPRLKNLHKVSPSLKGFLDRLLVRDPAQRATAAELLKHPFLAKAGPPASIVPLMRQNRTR
PAK2 (PAK65), sequence (Q13177 whole entry): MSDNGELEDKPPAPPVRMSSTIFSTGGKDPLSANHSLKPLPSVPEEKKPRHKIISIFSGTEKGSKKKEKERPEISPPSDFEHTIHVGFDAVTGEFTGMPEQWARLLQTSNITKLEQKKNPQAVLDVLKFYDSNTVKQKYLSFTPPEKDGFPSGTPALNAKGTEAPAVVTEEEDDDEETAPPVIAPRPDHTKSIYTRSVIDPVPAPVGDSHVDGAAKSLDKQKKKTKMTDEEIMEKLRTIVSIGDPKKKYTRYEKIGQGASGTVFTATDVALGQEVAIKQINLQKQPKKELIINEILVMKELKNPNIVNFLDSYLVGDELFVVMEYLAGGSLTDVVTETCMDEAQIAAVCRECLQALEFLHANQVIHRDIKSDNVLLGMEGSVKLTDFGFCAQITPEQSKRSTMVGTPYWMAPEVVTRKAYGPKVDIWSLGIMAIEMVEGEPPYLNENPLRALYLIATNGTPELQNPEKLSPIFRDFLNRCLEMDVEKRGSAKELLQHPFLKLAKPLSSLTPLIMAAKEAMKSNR
PAK3, sequence (O75914 1-544 isoform O75914-2): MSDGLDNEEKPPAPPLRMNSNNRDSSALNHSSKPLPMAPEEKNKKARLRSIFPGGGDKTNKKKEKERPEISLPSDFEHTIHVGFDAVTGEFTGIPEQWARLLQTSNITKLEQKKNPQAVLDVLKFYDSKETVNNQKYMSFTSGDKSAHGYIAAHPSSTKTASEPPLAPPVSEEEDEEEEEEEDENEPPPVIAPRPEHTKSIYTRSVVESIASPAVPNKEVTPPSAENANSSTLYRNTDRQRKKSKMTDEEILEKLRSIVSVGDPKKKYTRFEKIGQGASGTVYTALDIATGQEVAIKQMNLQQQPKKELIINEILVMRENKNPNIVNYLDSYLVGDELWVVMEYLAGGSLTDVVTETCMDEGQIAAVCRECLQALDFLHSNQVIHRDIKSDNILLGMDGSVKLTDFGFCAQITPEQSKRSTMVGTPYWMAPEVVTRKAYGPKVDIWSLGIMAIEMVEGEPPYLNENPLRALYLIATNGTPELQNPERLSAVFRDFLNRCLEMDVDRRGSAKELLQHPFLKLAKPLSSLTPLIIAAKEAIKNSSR
PAK1, sequence (Q13153 whole entry): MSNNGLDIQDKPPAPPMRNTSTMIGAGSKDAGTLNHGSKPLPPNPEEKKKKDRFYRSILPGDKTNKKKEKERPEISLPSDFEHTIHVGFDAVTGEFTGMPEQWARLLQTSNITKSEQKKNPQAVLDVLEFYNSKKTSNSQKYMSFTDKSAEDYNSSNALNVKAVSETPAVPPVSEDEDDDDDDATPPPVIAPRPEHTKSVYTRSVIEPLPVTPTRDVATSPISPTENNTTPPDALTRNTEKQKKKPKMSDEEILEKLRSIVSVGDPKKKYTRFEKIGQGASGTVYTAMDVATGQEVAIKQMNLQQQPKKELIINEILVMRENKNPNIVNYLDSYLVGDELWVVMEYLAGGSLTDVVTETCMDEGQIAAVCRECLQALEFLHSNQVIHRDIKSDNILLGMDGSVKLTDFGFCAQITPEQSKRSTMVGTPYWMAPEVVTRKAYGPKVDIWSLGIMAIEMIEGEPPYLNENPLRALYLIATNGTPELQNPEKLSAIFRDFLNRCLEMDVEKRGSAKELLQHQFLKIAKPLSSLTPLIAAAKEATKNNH

| Compound | IC50 ([1]; read-out: PAK2 IC50) [nM] | IC50 ([2]; read-out: PAK3 IC50) [nM] | IC50 [3] [nM] | IC50 ([4]; read-out: PAK1 IC50) [nM] | IC50 [1] [nM] | IC50 ([2]; PAK3 IC50 (nM)) [nM] | IC50 [4] [nM] |
| --- | --- | --- | --- | --- | --- | --- | --- |
| CCn1c(=O)c(-c2ccc(-c3nccnc3C)cc2C)cc2cnc(NC3CCOCC3)nc21 [Example 1, 8-ethyl-6-(2-methyl-4-(3-methylpyrazin-2-yl)phenyl)-2-(tetrahydro-2H-pyran-4-ylamino)pyrido[2,3-d]pyrimidin-7(8H)-one] | 50 to 500 | 50 to 500 | > 5000 | 50 to 500 |  |  |  |
| CCn1c(=O)c(-c2ccc(-c3ccnc(C)n3)cc2Cl)cc2cnc(NC3CCOCC3)nc21 [Example 8] | 50 to 500 | 50 to 500 | > 5000 | 50 to 500 |  |  |  |
| CCn1c(=O)c(-c2ccc(-c3cncc(C)n3)cc2Cl)cc2cnc(N[C@H]3CCOC3)nc21 [Example 27] | < 50 | 50 to 500 | > 5000 | 50 to 500 |  |  |  |
| CCn1c(=O)c(-c2ccc(-c3cncc(C)n3)cc2Cl)cc2cnc(N[C@H]3CC[C@H](N)CC3)nc21 [Example 85] | < 50 | 50 to 500 | > 5000 | < 50 |  |  |  |
| CCn1c(=O)c(-c2ccc(-c3nccnc3C)cc2Cl)cc2cnc(NCCC3CCNCC3)nc21 [Example 136] | < 50 | 50 to 500 | > 5000 | < 50 |  |  |  |
| CCn1c(=O)c(-c2ccc(-c3nccnc3C)cc2Cl)cc2cnc(N[C@H]3CCOC(C)(C)C3)nc21 (stereo in doubt) [Example 77] | < 50 | 50 to 500 | > 5000 | < 50 |  |  |  |
| CCn1c(=O)c(-c2ccc(-c3noc(C)n3)cc2Cl)cc2cnc(N[C@H]3CC[C@H](N)CC3)nc21 [Example 94] | 50 to 500 | 50 to 500 | > 5000 | 50 to 500 |  |  |  |
| CCn1c(=O)c(-c2ccc(-c3cncc(C)n3)cc2Cl)cc2cnc(NCCCC3CCN(C)CC3)nc21 [Example 68] | 50 to 500 | 50 to 500 | > 5000 | 50 to 500 |  |  |  |
| CCn1c(=O)c(-c2ccc(-c3cccnc3OC)cc2Cl)cc2cnc(NC3CCOCC3)nc21 [Example 52] | > 5000 | > 5000 | > 5000 | 500 to 5000 |  |  |  |
| CCn1c(=O)c(-c2ccc(-c3cccnc3)cc2Cl)cc2cnc(NC3CCOCC3)nc21 [Example 44] | 50 to 500 | 50 to 500 | > 5000 | 50 to 500 |  |  |  |
| CCn1c(=O)c(-c2ccc(-c3nccnc3C)cc2Cl)cc2cnc(NC3CCNC3)nc21 (centres unmarked) [Example 83] | 50 to 500 | 500 to 5000 | > 5000 | 50 to 500 |  |  |  |
| Cc1nc(-c2ccc(-c3cc4cnc(NC5CCOCC5)nc4n(Cc4ccccc4C(F)(F)F)c3=O)c(Cl)c2)no1 [Example 24] |  |  | > 5000 |  | 50 to 500 | 50 to 500 | 50 to 500 |
| Cc1cncc(-c2ccc(-c3cc4cnc(NC5CCOCC5)nc4n(Cc4ccccc4C(F)(F)F)c3=O)c(Cl)c2)n1 [Example 20] | < 50 | 50 to 500 | > 5000 | 50 to 500 |  |  |  |
| CCn1c(=O)c(-c2ccc(-c3cccnc3F)cc2Cl)cc2cnc(NC3CCOCC3)nc21 [Example 12] | 50 to 500 | < 50 | > 5000 | < 50 |  |  |  |
| Cc1cncc(-c2ccc(-c3cc4cnc(N[C@@H]5CCOC5)nc4n(C4CCN(C)CC4)c3=O)c(Cl)c2)n1 [Example 107] | 50 to 500 | 500 to 5000 | > 5000 | 50 to 500 |  |  |  |
| CCn1c(=O)c(-c2ccc(-c3cncc(C)n3)cc2Cl)cc2cnc(NCCOCCN)nc21 [Example 128] | 50 to 500 | 50 to 500 | > 5000 | 50 to 500 |  |  |  |
| CCn1c(=O)c(-c2ccc(-c3cncc(C)n3)cc2Cl)cc2cnc(N[C@H]3CC[C@H](CN(C)C)CC3)nc21 [Example 84, 6-(2-chloro-4-(6-methylpyrazin-2-yl)phenyl)-2-((trans-1,4)-4-((dimethylamino)methyl)cyclohexylamino)-8-ethylpyrido[2,3-d]pyrimidin-7(8H)-one] | < 50 | < 50 | > 5000 | < 50 |  |  |  |
| CCn1c(=O)c(-c2ccc(-c3noc(C)n3)cc2Cl)cc2cnc(NC3CCOCC3)nc21 [Example 4] | 50 to 500 | 50 to 500 | > 5000 | 50 to 500 |  |  |  |
| CCn1c(=O)c(-c2cc(C)c(-c3cncc(C)n3)cc2Cl)cc2cnc(N[C@H]3CCOC3)nc21 [Example 72] | < 50 | 50 to 500 | > 5000 | < 50 |  |  |  |
| CCn1c(=O)c(-c2ccc(-c3cncc(C)n3)cc2Cl)cc2cnc(NC3CCOC(C)(C)C3)nc21 (centres unmarked) [Example 31] | 50 to 500 | 50 to 500 | > 5000 | 50 to 500 |  |  |  |

Reference: patent US20130116263A1, “PAK INHIBITORS FOR THE TREATMENT OF CELL PROLIFERATIVE DISORDERS” (AFRAXIS, INC., priority 2011, published 2013)
